The text below walks through data of patent publication US4833079A, “Process for producing 3,7-dihydroxytropolone and antitumor use thereof” (Bristol-Myers Company, priority 1986, dated 1989).

Data set [1] relates to B16-F10 cells. As to the kind of experiment: in vitro cytotoxicity against B16-F10 murine melanoma cells (neutral red, 72 hours). Type of data set: cell-based. The note with it: for IC50: Mus musculus, read-out: Cytotoxicity vs B16 IC50. As for the experimental part:
(§1) BU-3129T (3,7-dihydroxytropolone) and its analogs were tested for in vitro cytotoxicity against logarithmically growing murine melanoma tumor cells in liquid culture. B16-F10 cells (4×10^4 cells) in the enriched MEM (Minimum essential medium (Eagle's)) containing test material solution were planted into wells of 96-well microtiter plates and incubated at 37° C., with 5% CO2 under high humidity for 72 hours. After staining with neutral red, cytotoxicity of test material was determined colorimetrically. The inhibitory effects on macromolecule biosynthesis were examined in cultured L1210 leukemia cells. L1210 cells (5×10^5 cells) were exposed to radioactive precursors (^3 H-thymidine, ^14 C-uridine and ^3 H-leucine) for 60 min after the treatment with test material for 15 min. The incorporated radioactivities into acid-insoluble fractions were measured by using a liquid scintillation counter. The in vivo antitumor activity of BU-3129T was determined in male BDF1 mice against leukemia P388 and melanoma B16. Leukemia P388 and melanoma B 16 were inoculated by the intraperitoneal injection at 10^6 cells and 0.5 ml of a 10% tumor brei per mouse, respectively. Test material was administered to mice intraperitoneally once daily through 1 to 9 days after tumor implantation. Tropolone and mitomycin C were comparatively tested in the experiments.

Data set [2] concerns L1210 leukemia cells. As to the kind of experiment: inhibition of macromolecule biosynthesis in cultured L1210 leukemia cells (incorporation of radioactive precursors). Type of data set: cell-based. The note with it: Mus musculus. As for the experimental part: as §1
Data set [3] concerns leukemia P388. In kind it is in vivo, mice. The note with it: for MST / T/C: qd 1→9, ip. As for the experimental part:
as §1

For data set [4], the system named is melanoma B16. Kind of data set: in vivo antitumor activity against melanoma B16 in male BDF1 mice. The conditions noted are these: for antitumor activity against melanoma B16: in words, mice. As for the experimental part:
as §1

Data set [5] is described as follows: solubility. In kind it is physicochemical.
In data set [6] the test system is mammalian malignant tumors. As to the kind of experiment: inhibitory action against mammalian malignant tumors (summary statement). The note with it: in words. As for the experimental part: as §1
The conditions of data set [7]: in words; Kirst paper; cited from earlier work.
The mark [8] stands for this setting: L1210, DNA, 3H-thymidine, 60 min after 15 min treatment, read-out: Inhibition of macromolecule biosynthesis vs L1210 IC50, DNA.
Setting [9] is: L1210, Protein, 3H-leucine, 60 min after 15 min treatment, read-out: Inhibition of macromolecule biosynthesis vs L1210 IC50, Protein.
Setting [10] is: L1210, RNA, 14C-uridine, 60 min after 15 min treatment, read-out: Inhibition of macromolecule biosynthesis vs L1210 IC50, RNA.
Setting [11] is: Exp. 1, 0.16 mg/kg/day, qd 1→9, ip.
Setting [12] is: Exp. 1, 2.5 mg/kg/day, qd 1→9, ip.
Setting [13] is: Exp. 2, 1.0 mg/kg/day, qd 1→9, ip.
Where [14] appears, read: Exp. 2, 3.0 mg/kg/day, qd 1→9, ip.
Setting [15] is: Exp. 2, 10 mg/kg/day, qd 1→9, ip.
[16] abbreviates: Exp. 2, 30 mg/kg/day, qd 1→9, ip.
The mark [17] stands for this setting: Exp. 1, 0.1 mg/kg/day, qd 1→9, ip.
Where [18] appears, read: Exp. 1, 0.3 mg/kg/day, qd 1→9, ip.
Setting [19] is: Exp. 1, 1.0 mg/kg/day, qd 1→9, ip.

The structures appear in SMILES notation. Values after ≈ are worked out from the molar mass of the structure shown. Read-outs that look alike come from different tables or passages of the source. Some results are limits rather than exact numbers.

For `O=c1ccc(O)ccc1O` [5-hydroxytropolone], the “potency order in the in vitro cytotoxicity test” value (shortened to “potency order”) in data set [1] was “follow by 7-hydroxytropolone, 4,7-dihydroxytropolone, tropolone and 5-hydroxytropolone”. Besides, the concentration for half-maximal inhibition (IC50) in data set [1] (B16-F10, 72 h) is 2.4 µg/mL (≈ 17.4 µM); in data set [2] (setting [8]), greater than 100 µg/mL; in data set [2] (setting [9]), 100 µg/mL (≈ 724 µM); in data set [2] (setting [10]), greater than 100 µg/mL.
Regarding `O=c1c(O)cccc(O)c1O` [BU-3129T, 3,7-dihydroxytropolone], in data set [1], the “potency order” value was “most potent”. Moreover, the concentration for half-maximal inhibition (IC50) is 0.04 µg/mL (≈ 0.26 µM) in data set [1] (B16-F10, 72 h); 9 to 14 µg/mL (≈ 58.4 to 90.8 µM) in data set [2] (L1210, DNA, RNA and protein together, non-specific, read-out: inhibitory effects on DNA, RNA and protein biosynthesis, IC50 values); 9.4 µg/mL (≈ 61 µM) in data set [2] (setting [8]); 11 µg/mL (≈ 71.4 µM) in data set [2] (setting [9]); 14 µg/mL (≈ 90.8 µM) in data set [2] (setting [10]). In addition, the “times more cytotoxic against B16 melanoma than tropolone and the hydroxytropolones compared” value in data set [1] (mouse, 4320 min) is on record as 10-40 times. Moreover, the MST in data set [3] (0.16 mg/kg/day) was 11.0 days; in data set [3] (0.31 mg/kg/day), 11.0 days; in data set [3] (0.63 mg/kg/day), 10.0 days; in data set [3] (1.3 mg/kg/day), 11.0 days; in data set [3] (2.5 mg/kg/day), 10.0 days; in data set [4] (setting [11]), 16.0 days. The MST in data set [4] (Exp. 1, 0.31 mg/kg/day, qd 1→9, ip) is recorded as 18.0 days; in data set [4] (Exp. 1, 0.63 mg/kg/day, qd 1→9, ip), 23.0 days; in data set [4] (Exp. 1, 1.3 mg/kg/day, qd 1→9, ip), 29.0 days; in data set [4] (setting [12]), 12.0 days. The T/C in data set [3] (0.16 mg/kg/day) was determined as 105%; in data set [3] (0.31 mg/kg/day) it was 105%; in data set [3] (0.63 mg/kg/day), 95%; in data set [3] (1.3 mg/kg/day) it was 105%; in data set [3] (2.5 mg/kg/day), 95%; in data set [4] (setting [11]), 100%. In addition, in data set [4] (setting [12]), the T/C is on record as 75%. For the same compound, the “antitumor activity against leukemia P388” value in data set [3] (in words, mice, ip) is on record as “no activity”. Also, the “toxicity” value in data set [4] (Exp. 1, 5.0 mg/kg/day, qd 1→9, ip) was “tox”. For the same compound, in data set [4] (ip), the “antitumor activity against melanoma B16” value was “significant antitumor activity”. Also, the “Average weight change on day 5” value in data set [4] (mouse, in vivo, ip, 0.16 mg/kg/day) is on record as “+0.4 g”; in data set [4] (mouse, in vivo, ip, 0.31 mg/kg/day), “+1.2 g”; in data set [4] (mouse, in vivo, ip, 0.63 mg/kg/day) it was “+1.0 g”; in data set [4] (mouse, in vivo, ip, 1.3 mg/kg/day), “+0.4 g”; in data set [4] (mouse, in vivo, ip, 2.5 mg/kg/day), -0.8 g. Besides, the solubility result in data set [5] (dimethylformamide) was “readily soluble”; in data set [5] (dimethylsulfoxide), “readily soluble”; in data set [5] (ethanol) it was “slightly soluble”; in data set [5] (methanol) it was “slightly soluble”; in data set [5] (other organic solvents), “practically insoluble”; in data set [5] (water), “slightly soluble”. Besides, the “inhibitory action against mammalian malignant tumors” value in data set [6] is reported as “marked inhibitory action”. Also, the antimicrobial activity result in data set [7] was “possesses antimicrobial activity”.
With `O=c1c(O)ccccc1O` [7-hydroxytropolone], in data set [1], the “potency order” value is “follow by 7-hydroxytropolone, 4,7-dihydroxytropolone, tropolone and 5-hydroxytropolone”. Besides, the IC50 in data set [1] (B16-F10, 72 h) was 0.3 µg/mL (≈ 2.17 µM); in data set [2] (setting [8]), 21 µg/mL (≈ 152 µM); in data set [2] (setting [9]), greater than 100 µg/mL; in data set [2] (setting [10]) it was 41 µg/mL (≈ 297 µM).
Regarding `O=c1c(O)ccc(O)cc1O` [4,7-dihydroxytropolone], the “potency order” value in data set [1] was “follow by 7-hydroxytropolone, 4,7-dihydroxytropolone, tropolone and 5-hydroxytropolone”. The half-maximal inhibitory concentration (IC50) in data set [1] (B16-F10, 72 h) is 0.38 µg/mL (≈ 2.47 µM); in data set [2] (setting [8]), 39 µg/mL (≈ 253 µM); in data set [2] (setting [9]) it was greater than 100 µg/mL; in data set [2] (setting [10]), greater than 100 µg/mL.
Regarding `O=c1cccccc1O` [Tropolone], the IC50 in data set [1] (B16-F10 cells, 72 hours) is 1.8 µg/mL (≈ 14.7 µM); in data set [2] (L1210, read-out: Inhibition of macromolecule biosynthesis vs L1210 IC50, DNA), 2.2 µg/mL (≈ 18 µM); in data set [2] (L1210, read-out: Inhibition of macromolecule biosynthesis vs L1210 IC50, Protein), 9.9 µg/mL (≈ 81.1 µM); in data set [2] (L1210, read-out: Inhibition of macromolecule biosynthesis vs L1210 IC50, RNA) it was 20 µg/mL (≈ 164 µM). For the same compound, in data set [1] (in words), the “potency order” value is “follow by 7-hydroxytropolone, 4,7-dihydroxytropolone, tropolone and 5-hydroxytropolone”. Further, the “Average weight change on day 5” value in data set [4] (setting [13]) is “+2.3 g”; in data set [4] (setting [14]) it was “+2.5 g”; in data set [4] (setting [15]), “+3.3 g”; in data set [4] (setting [16]) it was “+2.0 g”. The MST was found to be 19.0 days in data set [4] (setting [13]), 17.5 days in data set [4] (setting [14]), 18.0 days in data set [4] (setting [15]) and 18.0 days in data set [4] (setting [16]). In addition, the T/C in data set [4] (setting [13]) is listed as 112%; in data set [4] (setting [14]) it was 103%; in data set [4] (setting [15]), 106%; in data set [4] (setting [16]), 106%. The “antitumor activity against melanoma B16” value in data set [4] (ip) is listed as “did not show any activity”.
Turning to `CO[C@@]12[C@H](COC(N)=O)C3=C(C(=O)C(C)=C(N)C3=O)N1C[C@@H]1N[C@@H]12` [Mitomycin C], in data set [1] (B16-F10, 72 h), the IC50 worked out at 2 µg/mL (≈ 5.98 µM). Moreover, the MST in data set [3] (0.08 mg/kg/day) is listed as 12.0 days; in data set [3] (0.16 mg/kg/day), 15.0 days; in data set [3] (0.31 mg/kg/day), 16.0 days; in data set [3] (1.3 mg/kg/day), 21.0 days; in data set [4] (setting [17]) it was 16.0 days; in data set [4] (setting [18]) it was 22.0 days. In data set [4] (setting [19]), this compound returned an MST of 27.0 days. Further, the T/C in data set [3] (0.08 mg/kg/day) is listed as 114%; in data set [4] (setting [17]), 100%. For the same compound, the “Average weight change on day 5” value is recorded as “+1.0 g” in data set [4] (setting [17]), “+0.4 g” in data set [4] (setting [18]) and “+0.6 g” in data set [4] (setting [19]).

What is called IC50 is the point on the concentration scale where inhibition reaches its midpoint. As a reminder, the T/C is the ratio of treated to control.
